Measurements: patent US20020035264A1, “Ophthalmic formulation of a selective cyclooxygenase-2 inhibitory drug” (priority 2000, published 2002)
“Also recorded” adds a separate entry of the source.

Experiment: Ocular versus oral delivery of valdecoxib nanoparticle suspensions; drug concentration in eye tissues and plasma by LC-MS
Type: in vivo, New Zealand white rabbits
Conditions: rabbit
Procedure: Oral and ophthalmic suspensions of valdecoxib nanoparticles were prepared. […] The two carrageenan excipients are both ι-carrageenans with slightly different chemical and physical properties.
Eighteen male New Zealand white rabbits weighing from 1.8-2.5 kg were provided as test animals and divided into three lots containing six rabbits each.
Selected eye tissues, aqueous humor, bulbar conjunctiva, cornea, eyelids, vitreous humor and sclera, were excised at the time of sacrifice, weighed directly into tared vials, solubilized and/or diluted as necessary, and analyzed by HPLC-MS. Just prior to sacrifice, 0.5 mL of a blood sample was collected from the ear central artery via a syringe, placed into a K2-EDTA vacutainer, mixed gently and stored on ice up to one hour prior to centrifuging to separate the plasma. The plasma was stored at −10° C. or colder until analysis.

[1] = four hours after administration, FIGS. 2 and 3

## Cc1onc(-c2ccccc2)c1-c1ccc(S(N)(=O)=O)cc1 [valdecoxib, 4-[5-methyl-3-phenylisoxazol-4-yl]-benzenesulfonamide]
[1]
  delivery of the drug to the eye (conjunctiva, cornea, aqueous humor concentration), ocular versus oral administration: much more effective in delivering the drug to the eye than oral administration
  systemic (plasma) concentration of the drug, ocular versus oral administration: avoids the high systemic (plasma) concentration
Single ocular dose 25 μL ophthalmic suspension per eye (about 0.1 mg) vs oral 0.5 mg/kg, 0.5, 2 and 4 hours, FIG. 1, 0.5 mg/kg
  concentration of the drug in the conjunctiva versus time, ocular versus oral delivery: much higher initial concentration; also recorded: maintained this higher concentration over time
